Data taken from ChEMBL document CHEMBL4038335, “Neuroactive Steroids. 2. 3α-Hydroxy-3β-methyl-21-(4-cyano-1H-pyrazol-1'-yl)-19-nor-5β-pregnan-20-one (SAGE-217): A Clinical Next Generation Neuroactive Steroid Positive Allosteric Modulator of the (γ-Aminobutyric Acid)A Receptor” (J Med Chem, 2017).
Converted amounts (≈) assume the structure as drawn.

Legend:
[1] = Displacement of [35S]TBPS from GABA-A receptor in Sprague-Dawley rat cerebral cortex cell membranes after 90 mins in presence of GABA by liquid scintillation counting
[2] = target: Gamma-aminobutyric acid receptor subunit alpha-4/beta3/delta (Homo sapiens, UniProt O14764+P28472+P48169); assay: Positive allosteric modulation of GABAA receptor alpha4beta3delta (unknown origin) expressed in CHO cells assessed as potentiation of GABA-mediated increase in channel current under holding potential at -80 mV preincubated for 30 secs followed by GABA stimulation for 2 secs by manual patch clamp assay; format: cell-based
Sequence of Gamma-aminobutyric acid receptor subunit alpha-4/beta3/delta (P28472 whole entry): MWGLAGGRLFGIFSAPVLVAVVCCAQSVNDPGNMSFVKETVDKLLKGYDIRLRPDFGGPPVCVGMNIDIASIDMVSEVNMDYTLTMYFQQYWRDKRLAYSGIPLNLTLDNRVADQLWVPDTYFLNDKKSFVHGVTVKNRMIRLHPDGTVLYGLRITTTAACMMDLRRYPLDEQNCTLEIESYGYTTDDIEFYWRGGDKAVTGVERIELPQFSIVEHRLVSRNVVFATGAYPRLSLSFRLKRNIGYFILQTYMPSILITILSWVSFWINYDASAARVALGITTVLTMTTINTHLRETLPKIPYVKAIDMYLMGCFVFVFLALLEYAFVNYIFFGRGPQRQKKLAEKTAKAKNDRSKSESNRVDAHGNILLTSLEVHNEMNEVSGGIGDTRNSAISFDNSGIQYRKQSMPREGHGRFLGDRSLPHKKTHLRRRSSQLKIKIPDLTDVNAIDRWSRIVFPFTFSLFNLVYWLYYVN
Sequence of Gamma-aminobutyric acid receptor subunit alpha-4/beta3/delta (P48169 whole entry): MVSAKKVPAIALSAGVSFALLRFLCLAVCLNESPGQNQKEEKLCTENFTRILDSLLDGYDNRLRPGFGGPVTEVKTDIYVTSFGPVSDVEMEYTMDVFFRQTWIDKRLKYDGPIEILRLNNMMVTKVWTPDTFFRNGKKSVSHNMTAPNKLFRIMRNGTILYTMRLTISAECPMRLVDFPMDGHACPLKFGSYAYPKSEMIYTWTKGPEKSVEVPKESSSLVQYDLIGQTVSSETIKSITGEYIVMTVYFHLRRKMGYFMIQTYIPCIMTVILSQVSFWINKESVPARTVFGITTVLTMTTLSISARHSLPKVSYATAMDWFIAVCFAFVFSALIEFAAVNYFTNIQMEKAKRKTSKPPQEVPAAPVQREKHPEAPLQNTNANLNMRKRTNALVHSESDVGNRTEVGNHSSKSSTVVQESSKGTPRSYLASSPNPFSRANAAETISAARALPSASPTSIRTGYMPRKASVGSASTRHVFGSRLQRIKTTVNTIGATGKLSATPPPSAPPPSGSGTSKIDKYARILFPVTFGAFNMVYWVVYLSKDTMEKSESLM
Sequence of Gamma-aminobutyric acid receptor subunit alpha-4/beta3/delta (O14764 whole entry): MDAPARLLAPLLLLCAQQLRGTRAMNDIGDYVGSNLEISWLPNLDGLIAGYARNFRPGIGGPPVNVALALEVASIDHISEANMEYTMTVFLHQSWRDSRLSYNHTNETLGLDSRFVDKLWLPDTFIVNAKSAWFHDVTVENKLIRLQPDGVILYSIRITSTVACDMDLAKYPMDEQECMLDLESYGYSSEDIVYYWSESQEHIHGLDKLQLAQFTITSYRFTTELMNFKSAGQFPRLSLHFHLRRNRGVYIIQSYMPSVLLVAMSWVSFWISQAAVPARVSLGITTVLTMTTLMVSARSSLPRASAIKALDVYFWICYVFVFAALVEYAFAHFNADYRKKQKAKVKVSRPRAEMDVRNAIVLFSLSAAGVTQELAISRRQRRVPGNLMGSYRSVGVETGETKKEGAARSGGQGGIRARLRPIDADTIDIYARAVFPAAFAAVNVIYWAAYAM

[3] = target: GABA-A receptor; alpha-1/beta-2/gamma-2 (Homo sapiens) (UniProt P14867+P47870+P18507); assay: Positive allosteric modulation of GABAA receptor alpha1beta2gamma2 (unknown origin) expressed in mouse LTK cells assessed as potentiation of GABA-mediated increase in channel current under holding potential at -80 mV at 0.01 to 10 uM preincubated for 30 secs followed by GABA stimulation for 2 secs by automated patch clamp assay relative to GABA; format: cell-based
[4] = target: T1, GABA-A receptor; alpha-1/beta-2/gamma-2 (Homo sapiens, UniProt P14867+P18507+P47870); assay: Positive allosteric modulation of GABAA receptor alpha1beta2gamma2 (unknown origin) expressed in mouse LTK cells assessed as potentiation of GABA-mediated increase in channel current under holding potential at -80 mV preincubated for 30 secs followed by GABA stimulation for 2 secs by automated patch clamp assay; format: cell-based
T1 sequence (P14867 whole entry): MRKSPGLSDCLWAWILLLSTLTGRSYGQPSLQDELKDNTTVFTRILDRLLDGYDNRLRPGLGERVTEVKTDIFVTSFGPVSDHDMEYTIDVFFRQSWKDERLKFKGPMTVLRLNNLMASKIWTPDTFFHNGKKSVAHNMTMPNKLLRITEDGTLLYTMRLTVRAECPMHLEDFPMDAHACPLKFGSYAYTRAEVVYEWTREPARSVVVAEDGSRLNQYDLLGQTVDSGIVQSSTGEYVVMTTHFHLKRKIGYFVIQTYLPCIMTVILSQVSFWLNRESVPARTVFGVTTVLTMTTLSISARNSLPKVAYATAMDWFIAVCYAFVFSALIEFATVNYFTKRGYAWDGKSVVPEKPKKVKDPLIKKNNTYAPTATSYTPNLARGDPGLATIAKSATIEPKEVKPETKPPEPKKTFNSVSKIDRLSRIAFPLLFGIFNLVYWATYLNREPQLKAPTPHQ
T1 sequence (P47870 whole entry): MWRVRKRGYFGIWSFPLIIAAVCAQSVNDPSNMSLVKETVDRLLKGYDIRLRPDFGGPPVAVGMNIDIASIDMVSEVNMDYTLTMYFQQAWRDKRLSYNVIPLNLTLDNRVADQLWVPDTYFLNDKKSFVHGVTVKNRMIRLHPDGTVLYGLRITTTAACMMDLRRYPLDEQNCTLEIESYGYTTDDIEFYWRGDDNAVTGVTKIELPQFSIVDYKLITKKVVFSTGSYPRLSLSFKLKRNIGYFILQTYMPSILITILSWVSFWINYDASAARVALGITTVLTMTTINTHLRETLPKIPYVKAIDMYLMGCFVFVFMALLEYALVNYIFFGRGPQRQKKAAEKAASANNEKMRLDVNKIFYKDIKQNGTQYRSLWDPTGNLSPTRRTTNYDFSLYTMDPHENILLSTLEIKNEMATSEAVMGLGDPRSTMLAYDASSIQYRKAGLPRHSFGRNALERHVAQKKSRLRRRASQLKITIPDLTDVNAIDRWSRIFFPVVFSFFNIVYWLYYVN
T1 sequence (P18507 whole entry): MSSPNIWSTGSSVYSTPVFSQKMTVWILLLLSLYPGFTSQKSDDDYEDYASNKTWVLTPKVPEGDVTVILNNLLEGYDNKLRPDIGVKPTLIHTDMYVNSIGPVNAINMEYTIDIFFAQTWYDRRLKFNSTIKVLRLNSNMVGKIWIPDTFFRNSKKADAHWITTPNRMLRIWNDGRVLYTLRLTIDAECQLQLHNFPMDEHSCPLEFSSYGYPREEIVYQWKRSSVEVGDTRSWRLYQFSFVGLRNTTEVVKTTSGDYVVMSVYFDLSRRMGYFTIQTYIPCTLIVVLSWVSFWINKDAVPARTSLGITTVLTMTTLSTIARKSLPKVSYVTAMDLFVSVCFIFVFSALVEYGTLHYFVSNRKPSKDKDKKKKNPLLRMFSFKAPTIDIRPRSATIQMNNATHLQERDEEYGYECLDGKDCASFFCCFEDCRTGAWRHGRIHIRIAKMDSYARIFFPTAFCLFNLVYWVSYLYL

[5] = Ratio of drug level in Sprague-Dawley rat brain to plasma at 5 mg/kg, iv measured at 30 mins post dose by LC/MS-MS analysis; format: ADME, organism-based; settings: read-out: BPR
[6] = target: GABA-A receptor alpha-4/beta-3/delta (Homo sapiens, UniProt P28472+P48169+); assay: Positive allosteric modulation of GABAA receptor alpha4beta3delta (unknown origin) expressed in CHO cells assessed as potentiation of GABA-mediated increase in channel current under holding potential at -80 mV at 0.01 to 10 uM preincubated for 30 secs followed by GABA stimulation for 2 secs by manual patch clamp assay relative to GABA; format: cell-based; settings: 2 s
Sequence of GABA-A receptor alpha-4/beta-3/delta (P28472 whole entry): as the sequence (P28472 whole entry) above
Sequence of GABA-A receptor alpha-4/beta-3/delta (P48169 whole entry): as the sequence (P48169 whole entry) above
Sequence of GABA-A receptor alpha-4/beta-3/delta (Q06278 whole entry, further chain): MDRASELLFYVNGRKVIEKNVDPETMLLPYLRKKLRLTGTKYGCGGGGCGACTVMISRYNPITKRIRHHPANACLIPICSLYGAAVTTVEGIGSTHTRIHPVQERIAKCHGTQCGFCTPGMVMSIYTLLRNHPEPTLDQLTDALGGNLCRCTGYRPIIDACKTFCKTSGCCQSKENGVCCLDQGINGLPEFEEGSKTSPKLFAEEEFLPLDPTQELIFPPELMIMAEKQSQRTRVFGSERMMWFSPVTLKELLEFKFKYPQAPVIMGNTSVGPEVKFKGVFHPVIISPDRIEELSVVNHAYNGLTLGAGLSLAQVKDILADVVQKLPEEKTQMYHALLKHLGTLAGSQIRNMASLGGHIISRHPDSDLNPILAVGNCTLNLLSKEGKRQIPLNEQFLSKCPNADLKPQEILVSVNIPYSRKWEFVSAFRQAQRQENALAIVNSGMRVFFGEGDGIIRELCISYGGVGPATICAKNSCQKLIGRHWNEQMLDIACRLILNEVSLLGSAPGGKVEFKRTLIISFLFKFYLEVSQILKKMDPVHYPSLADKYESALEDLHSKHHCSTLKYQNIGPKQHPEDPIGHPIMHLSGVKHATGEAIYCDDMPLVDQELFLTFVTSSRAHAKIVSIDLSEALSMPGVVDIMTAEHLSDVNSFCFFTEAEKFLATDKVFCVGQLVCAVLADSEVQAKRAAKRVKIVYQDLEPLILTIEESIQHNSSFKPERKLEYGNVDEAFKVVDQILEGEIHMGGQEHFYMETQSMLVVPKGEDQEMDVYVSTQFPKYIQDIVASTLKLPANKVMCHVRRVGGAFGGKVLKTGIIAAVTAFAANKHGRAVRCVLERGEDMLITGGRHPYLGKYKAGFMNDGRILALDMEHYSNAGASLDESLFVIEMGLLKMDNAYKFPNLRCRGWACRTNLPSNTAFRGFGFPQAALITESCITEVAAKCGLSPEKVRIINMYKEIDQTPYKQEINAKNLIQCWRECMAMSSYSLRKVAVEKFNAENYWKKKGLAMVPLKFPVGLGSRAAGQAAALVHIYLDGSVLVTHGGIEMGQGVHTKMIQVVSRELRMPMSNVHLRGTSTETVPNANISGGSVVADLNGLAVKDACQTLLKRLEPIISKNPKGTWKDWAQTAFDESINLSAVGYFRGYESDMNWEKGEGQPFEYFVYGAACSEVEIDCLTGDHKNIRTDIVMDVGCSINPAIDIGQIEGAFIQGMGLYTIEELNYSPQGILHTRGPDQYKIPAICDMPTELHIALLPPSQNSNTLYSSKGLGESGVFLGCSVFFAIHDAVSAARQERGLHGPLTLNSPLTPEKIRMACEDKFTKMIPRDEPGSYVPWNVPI

[7] = Clearance in mouse hepatic microsomes at 10 uM preincubated for 5 mins followed by NADPH addition measured over 60 mins by HPLC-MS/MS analysis; format: ADME, Microsome; settings: liver microsomes
[8] = Lipophilicity, logD of compound at 20 uM at pH 7.4 by HPLC/MS-MS analysis; format: physicochemical; settings: buffer
[9] = Clearance in human hepatic microsomes at 10 uM preincubated for 5 mins followed by NADPH addition measured over 60 mins by HPLC-MS/MS analysis; format: ADME, Microsome; settings: liver microsomes
[10] = Thermodynamic aqueous solubility of compound at 10 uM sonicated for 1 min followed by incubation for 1 hr by HPLC-MS/MS; format: physicochemical; settings: buffer; read-out: Therm_solubility
[11] = Clearance in rat hepatic microsomes at 10 uM preincubated for 5 mins followed by NADPH addition measured over 60 mins by HPLC-MS/MS analysis; format: ADME, Microsome; settings: liver microsomes
[12] = Oral bioavailability in Sprague-Dawley rat at 20 mg/kg measured up to 8 hrs post dose by LC/MS-MS analysis; format: ADME, organism-based; settings: in vivo
[13] = Clearance in Sprague-Dawley rat at 5 mg/kg, iv or 20 mg/kg, po measured up to 8 hrs post dose by LC/MS-MS analysis; format: ADME, organism-based; settings: in vivo
[14] = Oral bioavailability in CD1 mouse at 20 mg/kg measured up to 8 hrs post dose by LC/MS-MS analysis; format: ADME, organism-based; settings: in vivo
[15] = Clearance in CD1 mouse at 5 mg/kg, iv or 20 mg/kg, po measured up to 8 hrs post dose by LC/MS-MS analysis; format: ADME, organism-based; settings: in vivo

| SMILES | IC50 [1] [µM] | EC50 [2] [µM] | Emax [3] [%] | EC50 [4] [µM] | other results |
| --- | --- | --- | --- | --- | --- |
| C[C@@]1(O)CC[C@H]2[C@H](CC[C@@H]3[C@@H]2CC[C@]2(C)[C@@H](C(=O)Cn4cc(C(=O)O)cn4)CC[C@@H]32)C1 | > 3 | – | – | – | – |
| C[C@@]1(O)CC[C@H]2[C@H](CC[C@@H]3[C@@H]2CC[C@]2(C)[C@@H](C(=O)Cn4cc(C(F)(F)F)cn4)CC[C@@H]32)C1 | 0.008 | 1.6 | 339 | 1.05 | – |
| CC[C@@]1(O)CC[C@H]2[C@H](CC[C@@H]3[C@@H]2CC[C@]2(C)[C@@H](C(=O)Cn4cc(C#N)cn4)CC[C@@H]32)C1 | 0.036 | – | > 297 | > 3 | – |
| Cc1cnnn1CC(=O)[C@H]1CC[C@H]2[C@@H]3CC[C@@H]4C[C@](C)(O)CC[C@@H]4[C@H]3CC[C@]12C | > 3 | 2.01 | 1120 | 1.6 | – |
| C[C@@]1(O)CC[C@H]2[C@H](CC[C@@H]3[C@@H]2CC[C@]2(C)[C@@H](C(=O)Cn4cc([N+](=O)[O-])cn4)CC[C@@H]32)C1 | 0.018 | – | 440 | 1.16 | – |
| Cc1cn(CC(=O)[C@H]2CC[C@H]3[C@@H]4CC[C@@H]5C[C@](C)(O)CC[C@@H]5[C@H]4CC[C@]23C)nn1 | 0.017 | – | > 530 | > 3 | – |
| Cc1cnn(CC(=O)[C@H]2CC[C@H]3[C@@H]4CC[C@@H]5C[C@](C)(O)CC[C@@H]5[C@H]4CC[C@]23C)c1 | 0.049 | 1.36 | 427 | 0.291 | Kp at 0.5 h [5]: 2; Emax [6]: 841%; CLhep predicted at 10 µM [7]: 85 mL/min/kg; logD at 20 µM [8]: 5; CLhep predicted at 10 µM [9]: 8.33 mL/min/kg; solubility thermodynamic at 1 h, 10 µM [10]: 7 µM (≈ 2.79 µg/mL); CLhep predicted at 10 µM [11]: 50 mL/min/kg; bioavailability [12]: 9.5%; clearance [13]: 63.3 mL/min/kg; bioavailability [14]: 6%; clearance [15]: 60 mL/min/kg |
| Cc1ccnn1CC(=O)[C@H]1CC[C@H]2[C@@H]3CC[C@@H]4C[C@](C)(O)CC[C@@H]4[C@H]3CC[C@]12C | 0.08 | – | > 469 | > 10 | – |
| C[C@@]1(O)CC[C@H]2[C@H](CC[C@@H]3[C@@H]2CC[C@]2(C)[C@@H](C(=O)Cn4cccn4)CC[C@@H]32)C1 | 0.03 | 1.24 | 474 | 0.979 | Kp at 0.5 h [5]: 1.1; Emax [6]: 583%; CLhep predicted at 10 µM [7]: 81.7 mL/min/kg; logD at 20 µM [8]: 4.6; CLhep predicted at 10 µM [9]: 5 mL/min/kg; solubility thermodynamic at 1 h, 10 µM [10]: 8 µM (≈ 3.08 µg/mL); CLhep predicted at 10 µM [11]: 41.7 mL/min/kg; bioavailability [12]: 19%; clearance [13]: 28.3 mL/min/kg; bioavailability [14]: 5%; clearance [15]: 75 mL/min/kg |
| Cc1ccn(CC(=O)[C@H]2CC[C@H]3[C@@H]4CC[C@@H]5C[C@](C)(O)CC[C@@H]5[C@H]4CC[C@]23C)n1 | 0.045 | – | > 695 | > 3.65 | – |
| COC[C@@]1(O)CC[C@H]2[C@H](CC[C@@H]3[C@@H]2CC[C@]2(C)[C@@H](C(=O)Cn4cc(C#N)cn4)CC[C@@H]32)C1 | 0.016 | 0.577 | > 1130 | > 3 | Emax [6]: 610% |
| C[C@@]1(O)CC[C@H]2[C@H](CC[C@@H]3[C@@H]2CC[C@]2(C)[C@@H](C(=O)Cn4cc(C#N)nn4)CC[C@@H]32)C1 | 0.251 | – | – | – | – |
| C[C@@]1(O)CC[C@H]2[C@H](CC[C@@H]3[C@@H]2CC[C@]2(C)[C@@H](C(=O)Cn4cc(C(N)=O)cn4)CC[C@@H]32)C1 | 0.064 | – | > 357 | > 3 | – |
| C[C@@]1(O)CC[C@H]2[C@H](CC[C@@H]3[C@@H]2CC[C@]2(C)[C@@H](C(=O)Cn4ncc(C#N)n4)CC[C@@H]32)C1 | 0.078 | – | > 154 | > 3 | – |
| COc1cnn(CC(=O)[C@H]2CC[C@H]3[C@@H]4CC[C@@H]5C[C@](C)(O)CC[C@@H]5[C@H]4CC[C@]23C)c1 | 0.028 | 2.05 | 434 | 1.76 | Emax [6]: 750% |
| C[C@@]1(O)CC[C@H]2[C@H](CC[C@@H]3[C@@H]2CC[C@]2(C)[C@@H](C(=O)Cn4cc(Cl)cn4)CC[C@@H]32)C1 | 0.013 | 0.744 | 642 | 1.5 | – |
